Experiments:
TC-1 tumors [1] = assay: TC-1 tumor model with antibody depletion of CD8+ or CD4+ T cells before vaccination; format: in vivo, mice; details: E7 + MPL
Description: (§1) C57BL/6 mice were challenged subcutaneously with 1×10^5 live TC-1 cells into the right flank.
To test if a high CD8^+ Teff/Treg cell ratio can serve as a predictor of vaccine therapeutic efficacy, we used antibodies against CD8 and CD4 molecules to deplete CD8^+ Teff and Treg cells, respectively. Mice with established TC-1 tumors were treated with depleting antibodies one day before vaccination with E7 protein admixed with SA-4-1BBL/MPL or MPL as monotherapy.

TC-1 tumors [2] = assay: Therapeutic vaccination in the established TC-1 tumor model; format: in vivo, C57BL/6 mice; details: single subcutaneous vaccination day 6 post-tumor challenge, E7 protein 50 μg plus adjuvant 25 μg/agent; 90 days observation
Text: as §1

[3] = system: intratumoral CD8^+ T cells and CD4^+Foxp3^+ Treg cells in TC-1 tumor; assay: Intratumoral CD8+ T cells and CD4+Foxp3+ Treg cells by confocal microscopy; format: in vivo, mice; details: one week post-vaccination
Description: (§2) Spleens and/or tumor draining lymph nodes (TdLNs) were processed as described previously (7). For memory T cell typing, lymphocytes were stained with anti-CD8-APC-Cy7, anti-CD62L-FITC, and anti-CD44-APC antibodies. For intracellular cytokine staining, lymphocytes (1×10^6 cells/mL) were stimulated either with 10 μg/mL E749-57 peptide for 2 hrs followed by incubation with GolgiPlug (1 μl/mL, BD PharMingen) overnight or with phorbol 12-myristate 13-acetate (PMA) (5 ng/ml, Sigma) and ionomycin (500 ng/ml, Sigma) for 2 hrs followed by incubation with GolgiPlug (1 μl/ml) for an additional 4 hrs. Cells were first stained with anti-CD44-APC and anti-CD8-APC-Cy7, fixed with 4% paraformaldehyde, and then stained with anti-IFN-γ-PE-Cy7, anti-IL-2-Percp-Cy5.5, anti-TNF-PE, or isotype controls followed by acquisition and analysis as previously reported (12). Intratumoral CD8^+ T cells and CD4^+Foxp3^+ Treg cells were analyzed using confocal microscopy as described (12).
Mice bearing ˜3-4 mm TC-1 tumor were vaccinated subcutaneously with various vaccine formulations. One week post-vaccination, tumors were harvested and analyzed for the presence of intratumoral CD8^+ T cells and CD4^+FoxP3^+ Treg cells using confocal microscopy. […] (FIG. 3A, B).

[4] = system: E749-57 peptide-specific CD8^+ T cells; assay: Primary CD8+ T cell intracellular IFN-γ response of tumor draining lymphocytes; format: in vivo, mice; details: one week post-vaccination
Description: as §2

[5] = system: 3LL pulmonary metastatic tumors; assay: 3LL pulmonary metastasis model, vaccination with survivin; format: in vivo, mice; details: single subcutaneous vaccination day 6 with SVN 50 μg plus adjuvant; lungs day 27
Description: For the pulmonary tumor model, 2×10^5 live 3LL cells were injected intravenously into the tail vein of mice. Mice were vaccinated subcutaneously either once on day 6 or twice on days 6 and 13 post-tumor challenge with various vaccine formulations containing survivin (SVN) protein (50 μg) alone as control or with SA-4-1BBL (25 μg), MPL (25 gig), or the combination of both agents (25 μg/agent). Mice were euthanized 27 days post-tumor challenge for analysis of lung tumor burden as described (12, 18).

TC-1 target cells = assay: Cytotoxicity assay; format: cell-based, mice; details: splenocytes one week post-vaccination, 5 days E749-57 + IL-2, effectors against TC-1 for 4 hrs
Description: Mice with ˜3-4 mm TC-1 tumors in diameter were vaccinated subcutaneously with vaccine formulations containing E7 protein (50 μg) alone or with SA-4-1BBL (25 μg), MPL (25 μg), or the combination of both agents (25 μg/agent). One week post-vaccination, splenocytes were cultured with 10 μg of E749-57 peptide/mL in complete MLR medium supplemented with 50 IU/mL of IL-2. Viable lymphocytes were harvested 5 days later using a Ficoll gradient and used as effectors at various ratios against TC-1 target cells for 4 hrs as described (41).

With “3-O-desacyl-4′-monophosphoryl lipid A [MPL]” the therapeutic efficacy (TC-1 tumors [1]; depletion of CD4+ T cells including Treg cells one day before vaccination) was 100%, the therapeutic efficacy (TC-1 tumors [1]; without depletion) was 50% and the “eradication of established TC-1 tumors, mice tumor-free” value (TC-1 tumors [2]) was 50%. For the same substance, the “intratumoral Teff/Treg cell ratio” value ([3]; TC-1 tumor) was “no effect”, the “number of intratumoral CD8+ T cells infiltration” value ([3]; TC-1 tumor) was “moderate effect” and the “number of intratumoral Treg cells” value ([3]; ~3-4 mm TC-1 tumor, versus PBS controls or E7 protein alone) was “did not have detectable effect”. The “E7 TAA-specific CD8+ T cell IFN-γ response (primary)” value [4] was “failed to do so”, the “control of tumor growth (lung weight and presence of tumor nodules)” value [5] was “statistically significant (P<0.05) effect in controlling tumor growth” and the TC-1 killing response (TC-1 target cells) was “failed to do so”.
